Earlier results in EP0211258A2, “Microemulsion compositions” (ABBOTT LABORATORIES, priority 1985, dated 1987).

Conditions: commonly employed aqueous solutions, 2.5%, w/v

CCCC(C)C1(CC)C(=O)NC(=S)NC1=O (stereo not shown) [thiopental sodium]
pH: 10.5
